ChEMBL document CHEMBL5728358, “JAK1 selective inhibitors” (2021)

Biological target: Tyrosine-protein kinase JAK1 (Homo sapiens, UniProt P23458)
Experiment: JAK enzyme was expressed as N-terminal GST fusion in insect cells and purified by glutathione-affinity and size-exclusion chromatographies. […] Phosphorylated and unphosphotylated peptides were separated and quantified by a Caliper LC3000 system (Caliper Life Sciences, MA) for calculating percent inhibition.
Type: organism-based

Chain of Tyrosine-protein kinase JAK1 (P23458 whole entry, the tested form may be a part): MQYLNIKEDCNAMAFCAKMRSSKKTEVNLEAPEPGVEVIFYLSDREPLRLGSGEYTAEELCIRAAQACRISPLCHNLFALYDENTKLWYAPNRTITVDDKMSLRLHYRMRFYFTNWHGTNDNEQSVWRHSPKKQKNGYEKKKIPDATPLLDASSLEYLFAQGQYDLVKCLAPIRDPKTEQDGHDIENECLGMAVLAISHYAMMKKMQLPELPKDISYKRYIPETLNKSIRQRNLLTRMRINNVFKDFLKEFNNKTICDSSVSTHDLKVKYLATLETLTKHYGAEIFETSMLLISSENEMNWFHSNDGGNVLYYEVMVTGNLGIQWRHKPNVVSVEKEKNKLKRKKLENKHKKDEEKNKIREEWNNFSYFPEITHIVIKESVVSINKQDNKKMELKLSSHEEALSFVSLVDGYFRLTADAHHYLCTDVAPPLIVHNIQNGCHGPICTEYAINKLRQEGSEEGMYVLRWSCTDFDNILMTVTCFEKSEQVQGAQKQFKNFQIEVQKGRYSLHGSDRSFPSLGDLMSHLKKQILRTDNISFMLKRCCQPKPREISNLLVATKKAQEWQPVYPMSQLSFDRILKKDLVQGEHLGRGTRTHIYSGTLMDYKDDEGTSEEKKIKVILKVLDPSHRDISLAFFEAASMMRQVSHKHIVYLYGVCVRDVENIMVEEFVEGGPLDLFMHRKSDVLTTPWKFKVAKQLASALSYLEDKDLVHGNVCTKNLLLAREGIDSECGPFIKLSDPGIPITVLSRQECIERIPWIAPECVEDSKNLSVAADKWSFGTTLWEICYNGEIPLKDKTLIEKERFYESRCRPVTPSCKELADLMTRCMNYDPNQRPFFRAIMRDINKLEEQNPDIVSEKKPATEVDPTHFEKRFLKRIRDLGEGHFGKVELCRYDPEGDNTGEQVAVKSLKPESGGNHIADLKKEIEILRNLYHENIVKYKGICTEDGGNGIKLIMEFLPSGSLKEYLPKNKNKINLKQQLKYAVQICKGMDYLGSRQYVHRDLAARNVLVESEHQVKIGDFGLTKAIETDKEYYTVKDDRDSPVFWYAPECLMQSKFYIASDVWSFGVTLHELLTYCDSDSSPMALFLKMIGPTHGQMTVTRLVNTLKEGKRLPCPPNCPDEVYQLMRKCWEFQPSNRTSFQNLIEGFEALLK

IC50: 3.4 nM
SMILES: Cc1cnc(Nc2cccc(S(C)(=O)=O)c2F)nc1-c1c[nH]c2c(NC(=O)[C@@H](C)N3C[C@H](C)N[C@@H](C)C3)cccc12
